Measured values taken from patent publication US20230077514A1, “METHODS FOR MODULATING CALORIE CONSUMPTION” (Duke University, priority 2020, published 2023).

How the values were obtained:
cervical vagus nerve = assay: Whole nerve electrophysiology of the cervical vagus during duodenal sugar perfusion; type: in vivo, mice; conditions: wild-type mice; sucrose 300 mM, D-glucose 150 mM, fructose 150 mM, galactose 150 mM, maltodextrin 8%, α-MGP 150 mM, sucralose 15 mM, acesulfame K 15 mM, saccharin 15 mM
Protocol: FIG. 1. […] Model: sugars are perfused into the duodenal lumen while nerve activity is recorded from the cervical vagus of anesthetized wild-type mice.
The proximal duodenum was perfused with sugars, thus bypassing any gustatory or gastric activation. Sugars were tested based on the following properties: both caloric content and sweet taste (sucrose [300 mM], D-glucose [150 mM], […], galactose [150 mM]), calorie-only (maltodextrin [8%], alpha-methylglucopyranoside (α-MGP) [150 mM]), or taste-only (sucralose [15 mM], acesulfame-K [15 mM], saccharin [15 mM]) (FIG. 1, FIG. 2, FIG. 3, FIG. 4).

duodenal Cck cells = assay: Vagal recording with intraluminal 532 nm laser silencing of duodenal Cck (neuropod) cells; type: in vivo; conditions: Cck_Halo mice; sucrose 300 mM, α-mgp 150 mM, sucralose 15 mM
Protocol: FIG. 9. Model: intraluminal 532 nm laser activates NpH3 chloride channels to silence duodenal Cck cells in CckCRE_NpH3 mice.
Using whole nerve electrophysiology of the cervical vagus nerve, it was confirmed that vagal activity increases in the presence of luminal sugars. Kaelberer et al., Science 361 (6408) (2018). The proximal duodenum was perfused with sugars, thus bypassing any gustatory or gastric activation. Sugars were tested based on the following properties: both caloric content and sweet taste (sucrose [300 mM], D-glucose [150 mM], fructose [150 mM], galactose [150 mM]), calorie-only (maltodextrin [8%], alpha-methylglucopyranoside (α-MGP) [150 mM]), or taste-only (sucralose [15 mM], acesulfame-K [15 mM], saccharin [15 mM]) (FIG. 1, FIG. 2, FIG. 3, FIG. 4). […] Intraluminal application of the 532 nm laser eliminated the vagal response to sucrose [300 mM], α-mgp [150 mM], and sucralose [15 mM] (n ≥ 5, p < 0.001) (FIG. 10 and FIG. 11; laser activation and wild-type controls). Thus, neuropod cells are required to sense both the calorie and taste properties of sugar and communicate these signals onto vagal neurons.
Cck neuropod cells in the duodenum express receptors for fatty acids (FIG. 69), analyzed by bulk sequencing Cck-positive and Cck-negative epithelial cells in the duodenum of CckGFP mice. Thus, CCK cells in the duodenum may signal the presence of fatty acids to the vagus nerve. To test this, the silencing optogenetic channel was expressed in Cck cells of mice. […] In the duodenum, there is overlap in cells expressing CCK and the vesicular glutamate transporter 1 (Vglut1), required for release of the neurotransmitter glutamate. To test whether glutamate is required as a signaling molecule for fat transduction to the vagus nerve, a cocktail of glutamate receptor inhibitors was perfused through the duodenum of wild type mice. Blockade of ionotropic and metabotropic glutamate receptors blocked vagal firing elicited by glutamate (FIG. 71). […] In an initial baseline test, mice freely explore an arena for 20 minutes, during which their position in the arena measured. […]

vagal nodose neurons = assay: Cultured dissociated vagal neurons stimulated with sugars; type: cell-based; conditions: D-glucose 20 mM; for response of vagal nodose neurons cultured alone: sucralose 2 mM, maltodextrin 1%, n = 59 neurons
Protocol: (§1) Dissociated vagal neurons were cultured to test whether the neurons are able to sense the different sugars. The neurons were stimulated with three consecutive sugars (D-glucose [20 mM], sucralose [2 mM], and maltodextrin [1%]) followed by KCI [50 mM] as an activity control. […] To determine how individual neuropod cells respond to taste and calorie properties, cultured Cck_tdTomato+ cells were stimulated with the same sugars, counterbalancing for order effect, and calcium activity was recorded using KCI [50 mM] as a final activity control. Of the 49 cells imaged, 18.4% responded to all types of sugar, 36.7% responded to only D-glucose, 20.4% to only maltodextrin, and 12.2% to only sucralose (n = 49 cells, n = 3 mice; FIG. 13). […] Cck_tdTomato+ cells were co-cultured with nodose neurons to determine whether neuropod cells were transducing different sugar stimuli onto the same vagal neurons. Patch-clamp electrophysiology, in voltage-clamp, was used to record neuron activity in response to neuropod cell exposure to D-glucose [20 mM] and sucralose [2 mM] in alternating order (FIG. 14). From the 18 pairs recorded, neuropod cells transduced the sugar stimuli and elicited excitatory post-synaptic currents in connected neurons in response to both stimuli in 6 pairs, to only D-glucose in 8 pairs, and to sucralose alone in 4 pairs (FIG. 14). Thus, neuropod cells are heterogenous in their response and transduction of caloric and non-caloric stimuli to vagal neurons.

Cck_tdTomato+ cells = assay: Calcium activity of cultured Cck_tdTomato+ cells stimulated with sugars; type: cell-based, mice; conditions: D-glucose 20 mM, sucralose 2 mM, maltodextrin 1%; 49 cells
Protocol: as §1, with “Thus, neuropod cells are heterogenous in their response and transduction of caloric and non-caloric stimuli to vagal neurons.” left out

[1] = tested on: nodose neurons co-cultured with Cck_tdTomato+ cells; assay: Patch-clamp electrophysiology of nodose neurons co-cultured with Cck_tdTomato+ cells; type: cell-based; conditions: D-glucose 20 mM, sucralose 2 mM; for peak excitatory post-synaptic currents, D-glucose vs sucralose: n = 18 pairs; for co-culture pairs responding to this stimulus only / co-culture pairs with excitatory post-synaptic currents in response to only this stimulus: of 18 pairs
Protocol: as §1

[2] = tested on: murine small intestinal organoids; assay: Glutamate release assay on murine small intestinal organoids; type: cell-based, mouse; conditions: sucrose 300 mM, α-MGP 150 mM, sucralose 15 mM; PBS control 2.632 ± 1.280
Protocol: Slc5a1+ Cck-GFP cells express transcripts for the vesicular glutamate transporters Slc17a6, Slc17a7, Slc17a8 and the excitatory neurotransmitter transporters Slc1a1, Slc1a2, and Slc1a3 (FIG. 4). […] A glutamate release assay was performed on murine small intestinal organoids to determine if glutamate release was stimuli specific (FIG. 24-left). α-MGP was used for a caloric stimulus with no sweet taste, because it is not metabolized once it enters the cell and thus allowed for isolation of cell entry. After nutrient stimulation, the glutamate concentration in the supernatant was 2.632 ± 1.280 ng/µL for PBS control, 13.460 ± 1.724 ng/µL for sucrose [300 mM], 18.183 ± 7.904 ng/µL for α-MGP [150 mM], and 6.053 ± 1.169 ng/µL for sucralose [15 mM].

[3] = tested on: enteroendocrine cells and nodose ganglia neurons; conditions: 10 mM glucose; cited from earlier work

| Compound | vagal response (firing) to intraduodenal sugar vs baseline (cervical vagus nerve) | vagal response with Cck cells silenced by 532 nm laser (duodenal Cck cells) | response of vagal nodose neurons cultured alone (vagal nodose neurons) | cells responding to only this sugar (Cck_tdTomato+ cells) [%] | peak excitatory post-synaptic currents, D-glucose vs sucralose [1] | co-culture pairs responding to this stimulus only [1] [%] | co-culture pairs with excitatory post-synaptic currents in response to only this stimulus [1] [pairs] | glutamate concentration in the supernatant after stimulation [2] [ng/µL] | neurons with a (small) response (vagal nodose neurons; 59 neurons) | activation of a nodose neuron by itself [3] | response of connected neuron to stimulus applied to the enteroendocrine cell [3] |
| --- | --- | --- | --- | --- | --- | --- | --- | --- | --- | --- | --- |
| OC[C@H]1O[C@H](O[C@]2(CCl)O[C@H](CCl)[C@@H](O)[C@@H]2O)[C@H](O)[C@@H](O)[C@H]1Cl [sucralose] | responds significantly | eliminated | do not respond | 12.2 | not significantly different | 22.2 | 4 | 6.053 ± 1.169 |  |  |  |
| O=C[C@H](O)[C@@H](O)[C@H](O)[C@H](O)CO [D-glucose] | responds significantly |  | do not respond | 36.7 | not significantly different | 44.4 | 8 |  | 2 of 59 | did not activate | induced excitatory post-synaptic potentials and action potential spikes |
